Laboratory results: patent US20130347134A1, “TRANSGENIC VON WILLEBRAND FACTOR ANIMALS AND USES THEREOF” (priority 2012, published 2013)
Entries after “also recorded” stand apart in the source; their conditions may differ.

Key:
[1] = tested on: human platelets; experiment: Ex vivo platelet adhesion, parallel-plate flow chamber, human whole blood over surface-immobilized VWF or VWF-A1, 1600 s^-1; format: cell-based; conditions: for translocation velocities of human platelets: on plasma VWF, mean±s.e.m, n=4
Procedure: Ex vivo platelet adhesion studies. Experiments were performed in a parallel-plate flow chamber as previously described (Offermanns, S., et al., 2006). For studies involving plasma VWF, a polyclonal anti-VWF antibody (Dako) was absorbed overnight (4° C.) to a six well tissue culture plate. Subsequently, the plate was washed and non-specific interactions blocked by the addition of TBS containing 3% BSA, pH 7.4 (1 hour, 37° C.). Human or murine plasma obtained from heparinized whole blood was added and the plates placed at 37° C. for an additional 2 hours. Generation, purification, and surface-immobilization of recombinant VWF-A1 proteins was performed as previously described (Doggett, T. A. et al., 2002). Both human and murine VWF-A1 constructs consist of amino acid residues 1238 to 1471, with a single intra-disulfide bond formed between residues 1272 and 1458 and were generated in bacteria. Citrated whole blood (150 μl) collected via cardiac puncture from anesthetized homozygous VWF^1326R>H or WT mice or from venopuncture from human volunteers was perfused over the immobilized substrates at a wall shear rate of 1600 s^−1 for 4 minutes, followed by washing with Tyrode's buffer under the identical flow conditions. The number of platelets attached per unit area (0.07 mm^2) and translocation velocities were determined by off-line analysis (Image-Pro Plus, Media Cybernetics). For GPIb α inhibition studies, the function-blocking mAb 6D1 (20 μg/ml) or mAb SZ2 (20 μg/ml; Beckman Coulter, Brea, Calif.) was added to anticoagulated human blood for 30 minutes prior to use. Experiments were performed in triplicate on two separate days. An ELISA was used to ensure equivalent coating concentration of plasma and recombinant proteins (Denis, C. et al., 1998).

[2] = tested on: human platelets; experiment: Tail bleeding assay, human platelet-induced hemostasis in homozygous VWF^1326R>H mice; format: in vivo, mouse; conditions: for human platelet-induced hemostatic clot formation: drug given to homozygous VWF^1326R>H mice receiving human platelets
Procedure: (§1) Tail bleeding assay. […] For studies involving PLAVIX, animals received a 50 mg/kg oral dose of the drug the day before and 2 hours prior to the administration of human platelets.
This assay provides an indirect measure of the ability of platelets and VWF to support hemostasis by interacting with the injured vessel wall. It also indirectly determines the function of multiple receptors and ligands on platelets that are required to form a hemostatic plug. […] It is performed by immersing the severed tip (10 mm) of the animal's tail in isotonic saline at 37° C. and monitoring the length of time required for bleeding to cease. Homozygous mutant mice will be infused with an equal volume of either saline or purified human platelets. Platelet specific antibodies or drugs will be administered as described above and their ability to prolong bleeding time evaluated.

[3] = molecular target: T1, αIIb β3 (Homo sapiens, UniProt P05106+P08514); conditions: intravenous bolus 0.25 mg/kg, then 0.125 μg/kg/min; cited from earlier work
T1 construct: endogenous in cells; host or cells: platelets of treated patients

[4] = molecular target: murine αIIb β3 (Mus musculus, UniProt O54890+Q9QUM0); conditions: cited from earlier work
Chain of murine αIIb β3 (Q9QUM0 32-1033): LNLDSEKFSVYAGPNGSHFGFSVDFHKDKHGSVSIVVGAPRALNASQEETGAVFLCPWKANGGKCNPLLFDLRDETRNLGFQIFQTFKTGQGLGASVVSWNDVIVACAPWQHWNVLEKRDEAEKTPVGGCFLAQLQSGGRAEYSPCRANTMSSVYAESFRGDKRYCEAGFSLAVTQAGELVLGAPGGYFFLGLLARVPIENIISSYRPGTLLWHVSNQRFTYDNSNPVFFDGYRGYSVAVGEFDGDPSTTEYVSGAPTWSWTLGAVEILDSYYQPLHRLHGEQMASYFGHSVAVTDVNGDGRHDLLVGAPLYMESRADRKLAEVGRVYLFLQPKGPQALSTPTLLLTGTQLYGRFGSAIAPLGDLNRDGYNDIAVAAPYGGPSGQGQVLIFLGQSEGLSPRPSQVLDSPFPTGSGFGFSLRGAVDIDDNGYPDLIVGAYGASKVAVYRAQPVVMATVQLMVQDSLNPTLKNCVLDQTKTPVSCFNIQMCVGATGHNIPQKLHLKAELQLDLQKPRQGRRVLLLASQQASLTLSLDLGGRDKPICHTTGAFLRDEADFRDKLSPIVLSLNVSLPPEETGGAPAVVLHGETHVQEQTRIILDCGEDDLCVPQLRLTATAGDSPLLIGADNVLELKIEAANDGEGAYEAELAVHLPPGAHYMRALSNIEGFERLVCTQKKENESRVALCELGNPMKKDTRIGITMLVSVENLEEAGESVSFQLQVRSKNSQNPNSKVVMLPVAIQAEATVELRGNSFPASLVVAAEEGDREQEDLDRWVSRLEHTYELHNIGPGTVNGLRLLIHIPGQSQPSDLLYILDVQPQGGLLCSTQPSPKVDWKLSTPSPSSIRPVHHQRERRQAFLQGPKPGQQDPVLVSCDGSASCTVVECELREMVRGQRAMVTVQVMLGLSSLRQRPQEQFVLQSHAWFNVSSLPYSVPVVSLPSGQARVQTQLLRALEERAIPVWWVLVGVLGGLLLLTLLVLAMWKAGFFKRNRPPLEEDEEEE
Chain of murine αIIb β3 (O54890 26-787): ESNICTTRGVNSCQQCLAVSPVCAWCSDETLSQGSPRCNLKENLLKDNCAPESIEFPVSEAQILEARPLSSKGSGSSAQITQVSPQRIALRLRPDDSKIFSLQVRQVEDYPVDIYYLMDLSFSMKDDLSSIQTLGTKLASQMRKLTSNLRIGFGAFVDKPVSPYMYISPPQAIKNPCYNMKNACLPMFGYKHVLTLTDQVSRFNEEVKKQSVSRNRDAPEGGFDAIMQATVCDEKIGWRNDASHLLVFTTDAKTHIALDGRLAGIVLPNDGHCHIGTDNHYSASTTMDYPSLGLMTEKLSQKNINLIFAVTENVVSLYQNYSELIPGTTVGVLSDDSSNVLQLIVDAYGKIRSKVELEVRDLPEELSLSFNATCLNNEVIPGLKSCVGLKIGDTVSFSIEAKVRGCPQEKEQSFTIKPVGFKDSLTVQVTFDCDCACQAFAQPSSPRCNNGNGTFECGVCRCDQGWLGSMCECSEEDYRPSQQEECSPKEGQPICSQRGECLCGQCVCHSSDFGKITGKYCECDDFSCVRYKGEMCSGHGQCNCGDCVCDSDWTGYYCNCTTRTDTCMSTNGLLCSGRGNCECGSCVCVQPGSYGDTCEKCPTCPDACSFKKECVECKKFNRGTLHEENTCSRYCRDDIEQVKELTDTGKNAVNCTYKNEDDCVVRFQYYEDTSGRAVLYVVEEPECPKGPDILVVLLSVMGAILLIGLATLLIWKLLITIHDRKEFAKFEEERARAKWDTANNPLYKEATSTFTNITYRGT

[5] = molecular target: ADP receptor on murine platelets (Mus musculus, UniProt Q9CPV9); conditions: FIG. 46A
Chain of ADP receptor on murine platelets (Q9CPV9 whole entry): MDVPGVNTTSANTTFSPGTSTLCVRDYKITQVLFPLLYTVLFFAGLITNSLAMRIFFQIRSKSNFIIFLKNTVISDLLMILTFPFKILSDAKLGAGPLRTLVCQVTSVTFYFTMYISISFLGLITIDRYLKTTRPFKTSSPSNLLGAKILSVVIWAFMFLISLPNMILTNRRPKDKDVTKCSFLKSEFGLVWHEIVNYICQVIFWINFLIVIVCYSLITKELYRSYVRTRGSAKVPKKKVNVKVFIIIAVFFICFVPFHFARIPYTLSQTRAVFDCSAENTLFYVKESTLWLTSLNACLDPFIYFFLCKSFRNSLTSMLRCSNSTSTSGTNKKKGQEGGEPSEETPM
Procedure: as §1

[6] = tested on: thrombus; conditions: maximal effective dose 50 mg/kg the day before and 2 hours prior; cited from earlier work
[7] = tested on: murine platelet rich plasma; experiment: Ristocetin-induced platelet aggregation assay (RIPA), murine platelet rich plasma; format: cell-based, mouse
Procedure: In Ristocetin-induced platelet aggregation assays (RIPA), platelet GPIb a binding to wild type human VWF or mouse VWF was analyzed in the absence or presence of ristocetin as described previously (Inbal, et al., 1993). In this method, platelet rich plasma (PRP) is placed in a clear cuvette containing a stir bar and inserted into the aggregometer. Platelet aggregation is induced by the addition of ristocetin. […] In fact, only at concentrations of 2.5 mg/ml was there any evidence of murine platelet aggregation observed (about 30%, FIG. 10C).

[8] = tested on: human platelets; experiment: Optical aggregometry, human platelets resuspended in platelet poor plasma of VWF^R1326H or VWF^HA1 mice; format: cell-based
Procedure: Although the R1326H mutation in murine VWF can support human platelet mediated hemostasis and thrombosis, there still exists a major difference between the human and mouse A1 domains. Specifically, only the human form can be activated to bind to GPIb alpha on human platelets. Ristocetin is an antibiotic that was taken off the market due to its ability to cause von Willebrand factor to bind the platelet receptor GPIb alpha, so when ristocetin is added to normal blood, it causes platelet clumping. […] Thus, murine VWF bearing the majority of the human A1 domain functions in manner more closely to that in humans, making it a better biological platform for studying human platelet function and the effects of antiplatelet agents for use in human beings.

[9] = tested on: mouse platelets; experiment: Parallel plate flow system, WT mouse blood over immobilized plasma VWF of VWF HA1 mice; format: cell-based
Excerpt: WT mouse blood was then infused over the immobilized substrate.

[10] = tested on: human platelets; experiment: Parallel plate flow system, human platelets over immobilized plasma VWF of VWF HA1 mice; format: cell-based

native human plasma VWF: human plasma VWF
translocation velocities of human platelets [1]: 3.2±0.1 μm/sec

abciximab
human platelet-induced hemostatic clot formation [2]: completely disrupted | human platelet-induced hemostatic clot formation ([2]; listed as ReoPro): prevented the formation of a hemostatic plug | mean bleeding time ([2]; given 5 minutes after infusion of human platelets, bolus 0.25 mg/kg then 0.125 μg/kg/min): 579 s | duration of disruption of platelet function [3]: 24 to 36 h | αIIb β3 occupancy [3]: > 80% | binding or disruption of function of murine αIIb β3 [4]: does not bind or disrupt the function of murine αIIb β3

murine plasma VWF: plasma VWF of wild type mice
human platelet deposition as compared with same-species controls ([1]; human whole blood, shear rate 1600 s^−1): 10%

COC(=O)[C@H](c1ccccc1Cl)N1CCc2sccc2C1 [clopidogrel]
function of the ADP receptor on murine platelets [5]: can also block the function of the ADP receptor on murine platelets | thrombus size and formation in mice [6]: reduce thrombus size and delay its formation

ristocetin
murine platelet aggregation ([7]; about 1.0 mg/ml): no such effect; also recorded: had no effect | human platelet aggregation ([8]; plasma from VWF^HA1 mice): cause human platelet aggregation comparable to its human counterpart | human platelet aggregation ([8]; plasma from VWF^R1326H animals): such was not the case

plasma VWF containing the human A1 domain: mouse VWF containing the majority of the human A1 domain (amino acids 1240P to 1481G)
mouse platelet interactions with the immobilized protein [9]: could not support any significant interactions | human platelet interactions with the immobilized protein [10]: could interact at levels observed for human plasma VWF

thrombin
platelet aggregation ([7]; incubation of murine PRP with thrombin): > 90%

VWF^1326R>H: full-length murine plasma VWF containing the 1326R>H mutation
translocation velocities of human platelets [1]: 3.5±0.1 μm/sec | human platelet accumulation on the surface-immobilized protein ([1]; shear rate 1600 s^−1): bound human platelets at levels comparable with its human counterpart
